In patent US8192962B2, “Processes for detecting toxic substances” (Daikin Industries, Ltd., priority 2001, dated 2012):

Tested on: Metabolism protein genes
Test: DNA chip mRNA expression in yeast, metabolism protein genes (Table 7)
Assay type: cell-based, Saccharomyces cerevisiae S288C
Procedure: Yeast (Saccharomyces cerevisiae S288C (α SUC2mal mel gap2 CUP1)) were incubated at 25° C. on YPD medium (yeast extract 1%, polypepton 2%, glucose 2%). One of toxic chemical substances was added to the cells at logarithmic growth phase, and the cells were further incubated for two hours. Cells were cultured without any chemical substance in the same condition, and were used as control. Concentrations of the chemical substances were defined to inhibit the growth of the yeast but not lead to death.
After completion of the incubation, the culture was centrifuged to collect the cells. To the cells, sodium acetate buffer (50 mM sodium acetate, 10 mM EDTA, 1% SDS) was added, and the mixture was shaken at 65° C. for five minutes, followed by returning to room temperature, and obtaining the supernatant, of which the procedures were repeated two times. To the supernatant, ½ amount of a solution of phenol/chloroform was added, and the mixture was centrifuged to give a supernatant, which was added with an equal amount of chloroform, and the mixture was centrifuged to give a supernatant. To the supernatant, an equal amount of isopropanol containing 0.3 M sodium acetate was added, and the mixture was allowed to stand at room temperature for 30 minutes, after which the mixture was centrifuged to give a sediment of the whole RNAs. Seventy % ethanol was added to the sediment, and the mixture was again centrifuged to give a sediment, which was then dried and dissolved in water. mRNA was isolated from the whole RNAs as followings. In view of the fact that a poly A chain is attached to the 3′ terminus of mRNA, a polynucleotide having a poly T structure which was immobilized on the surface of latex beads was used to trap the mRNA, and then the mRNA was washed and eluted with spine column (Oligotex-dT30<Super>mRNA Purification Kit, Takara). Reverse transcription of the mRNA was conducted with a reverse transcriptase (Super Script II Reverse Transcriptase; catalogue No. 18064-014, GibcoBRL) using fluorescence-labeled nucleotides to give cDNAs that were introduced with Cy3-dUTP or Cy5-dUTP during the reverse transcription.
The labeled cDNAs were dissolved in TE buffer (10mM Tris-HCl/1 mM EDTA, pH8.0), and the solution was dropped on the DNA chip containing the whole genes of yeast (DNA Chip Research Inc. Japan) so that the cDNAs were hybridized on the DNA chip at 65° C. for over 12 hours. The fluoresces intensity of the DNA chip was read with a scanner, and the ratio relative to the fluorescence intensity resulting from the absence of chemical substance was estimated as the following, which is shown in Tables 1 to 9: […]

Q: Which “The level of expressed mRNA in the presence of chemical substance/The level of expressed mRNA in the absence of chemical substance” value (yeast gene YAL012W) does the source give for `O=[N+]([O-])c1cc[n+]([O-])c2ccccc12` [(5), 4-nitroquinolin-N-oxide] here?
A: Its value is 0.6.

Q: And the “The level of expressed mRNA in the presence of chemical substance/The level of expressed mRNA in the absence of chemical substance” value (yeast gene YAL038W)?
A: Its value is 1.4.

Q: And the “The level of expressed mRNA in the presence of chemical substance/The level of expressed mRNA in the absence of chemical substance” value (yeast gene YAR071W)?
A: The value was 1.6.

Q: And the “level of expressed mRNA in the presence/in the absence of chemical substance” value (yeast gene YBR003W)?
A: Its value is 0.7.

Q: And the “level of expressed mRNA in the presence/in the absence of chemical substance” value (yeast gene YBR011C)?
A: The value was 0.9.

Q: And the “level of expressed mRNA in the presence/in the absence of chemical substance” value (yeast gene YBR020W)?
A: The value was 1.0.

Q: And the “The level of expressed mRNA in the presence of chemical substance/The level of expressed mRNA in the absence of chemical substance” value (yeast gene YBR023C)?
A: Its value is 0.8.

Q: What about the “The level of expressed mRNA in the presence of chemical substance/The level of expressed mRNA in the absence of chemical substance” value (yeast gene YBR029C) of the same compound?
A: Its value is 1.4.

Q: What about the “The level of expressed mRNA in the presence of chemical substance/The level of expressed mRNA in the absence of chemical substance” value (yeast gene YBR183W) of the same compound?
A: The value was 0.9.

Q: What about the “The level of expressed mRNA in the presence of chemical substance/The level of expressed mRNA in the absence of chemical substance” value (yeast gene YBR222C) of the same compound?
A: Its value is 0.7.

Q: And the “The level of expressed mRNA in the presence of chemical substance/The level of expressed mRNA in the absence of chemical substance” value (yeast gene YBR256C)?
A: The value was 1.6.

Q: What about the “The level of expressed mRNA in the presence of chemical substance/The level of expressed mRNA in the absence of chemical substance” value (yeast gene YBR299W) of the same compound?
A: Its value is 1.6.

Q: And the “The level of expressed mRNA in the presence of chemical substance/The level of expressed mRNA in the absence of chemical substance” value (yeast gene YCL009C)?
A: Its value is 0.7.

Q: And the “The level of expressed mRNA in the presence of chemical substance/The level of expressed mRNA in the absence of chemical substance” value (yeast gene YCL064C)?
A: The value was 1.4.

Q: What about the “level of expressed mRNA in the presence/in the absence of chemical substance” value (yeast gene YCR010C) of the same compound?
A: Its value is 1.7.

Q: And the “level of expressed mRNA in the presence/in the absence of chemical substance” value (yeast gene YCR034W)?
A: Its value is 0.9.

Q: What about the “The level of expressed mRNA in the presence of chemical substance/The level of expressed mRNA in the absence of chemical substance” value (yeast gene YCR048W) of the same compound?
A: The value was 0.9.

Q: And the “The level of expressed mRNA in the presence of chemical substance/The level of expressed mRNA in the absence of chemical substance” value (yeast gene YCR098C)?
A: The value was 1.4.

Q: And the “The level of expressed mRNA in the presence of chemical substance/The level of expressed mRNA in the absence of chemical substance” value (yeast gene YDR019C)?
A: The value was 0.9.

Q: And the “level of expressed mRNA in the presence/in the absence of chemical substance” value (yeast gene YDR050C)?
A: The value was 0.9.

Q: And the “level of expressed mRNA in the presence/in the absence of chemical substance” value (yeast gene YDR073W)?
A: The value was 1.2.

Q: And the “level of expressed mRNA in the presence/in the absence of chemical substance” value (yeast gene YDR123C)?
A: The value was 1.6.

Q: And the “level of expressed mRNA in the presence/in the absence of chemical substance” value (yeast gene YDR178W)?
A: The value was 0.9.

Q: What about the “level of expressed mRNA in the presence/in the absence of chemical substance” value (yeast gene YDR277C) of the same compound?
A: The value was 0.8.

Q: What about the “level of expressed mRNA in the presence/in the absence of chemical substance” value (yeast gene YDR284C) of the same compound?
A: Its value is 0.8.

Q: And the “level of expressed mRNA in the presence/in the absence of chemical substance” value (yeast gene YDR345C)?
A: Its value is 1.3.

Q: What about the “The level of expressed mRNA in the presence of chemical substance/The level of expressed mRNA in the absence of chemical substance” value (yeast gene YDR380W) of the same compound?
A: The value was 1.1.

Q: What about the “level of expressed mRNA in the presence/in the absence of chemical substance” value (yeast gene YDR400W) of the same compound?
A: The value was 1.0.

Q: What about the “level of expressed mRNA in the presence/in the absence of chemical substance” value (yeast gene YDR408C) of the same compound?
A: Its value is 0.9.

Q: And the “level of expressed mRNA in the presence/in the absence of chemical substance” value (yeast gene YDR483W)?
A: The value was 0.7.

Q: And the “The level of expressed mRNA in the presence of chemical substance/The level of expressed mRNA in the absence of chemical substance” value (yeast gene YDR497C)?
A: The value was 0.7.

Q: What about the “The level of expressed mRNA in the presence of chemical substance/The level of expressed mRNA in the absence of chemical substance” value (yeast gene YDR502C) of the same compound?
A: The value was 1.5.

Q: What about the “The level of expressed mRNA in the presence of chemical substance/The level of expressed mRNA in the absence of chemical substance” value (yeast gene YDR516C) of the same compound?
A: The value was 1.3.

Q: What about the “level of expressed mRNA in the presence/in the absence of chemical substance” value (yeast gene YEL063C) of the same compound?
A: The value was 1.2.

Q: And the “level of expressed mRNA in the presence/in the absence of chemical substance” value (yeast gene YER015W)?
A: Its value is 1.3.

Q: And the “The level of expressed mRNA in the presence of chemical substance/The level of expressed mRNA in the absence of chemical substance” value (yeast gene YER026C)?
A: The value was 1.2.

Q: And the “The level of expressed mRNA in the presence of chemical substance/The level of expressed mRNA in the absence of chemical substance” value (yeast gene YER053C)?
A: The value was 0.6.

Q: And the “The level of expressed mRNA in the presence of chemical substance/The level of expressed mRNA in the absence of chemical substance” value (yeast gene YER069W)?
A: Its value is 1.5.

Q: And the “level of expressed mRNA in the presence/in the absence of chemical substance” value (yeast gene YER081W)?
A: The value was 1.1.

Q: What about the “The level of expressed mRNA in the presence of chemical substance/The level of expressed mRNA in the absence of chemical substance” value (yeast gene YER096W) of the same compound?
A: Its value is 1.3.

Q: What about the “level of expressed mRNA in the presence/in the absence of chemical substance” value (yeast gene YER120W) of the same compound?
A: The value was 0.8.

Q: And the “The level of expressed mRNA in the presence of chemical substance/The level of expressed mRNA in the absence of chemical substance” value (yeast gene YER178W)?
A: The value was 0.7.

Q: And the “level of expressed mRNA in the presence/in the absence of chemical substance” value (yeast gene YFL011W)?
A: Its value is 1.3.

Q: And the “The level of expressed mRNA in the presence of chemical substance/The level of expressed mRNA in the absence of chemical substance” value (yeast gene YFL014W)?
A: Its value is 1.0.

Q: What about the “The level of expressed mRNA in the presence of chemical substance/The level of expressed mRNA in the absence of chemical substance” value (yeast gene YFL030W) of the same compound?
A: The value was 1.1.

Q: And the “The level of expressed mRNA in the presence of chemical substance/The level of expressed mRNA in the absence of chemical substance” value (yeast gene YFL031W)?
A: Its value is 1.0.
